From PubChem BioAssay (NCI)
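Cultured in 96-well plates, cells were exposed to test compound for 48 hours across five concentrations. Here, GI50 denotes the concentration required for 50% inhibition of growth. Definition used: TGI = concentration required for complete inhibition of growth.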

Assays:
Assay in all cases: growth of human tumour cells (NCI), 48 h
[1] = system: HS 578T breast
[2] = system: SK-MEL-5 melanoma
[3] = system: UACC-257 melanoma
[4] = system: SF-295 CNS
[5] = system: SN12C renal
[6] = system: K-562 leukemia
[7] = system: SF-268 CNS
[8] = system: NCI-H23 lung
[9] = system: HOP-92 NSCLC
[10] = system: HOP-62 NSCLC
[11] = system: RXF 393 renal
[12] = system: HT29 colon
[13] = system: MALME-3M melanoma
[14] = system: EKVX NSCLC
[15] = system: OVCAR-8 ovarian
[16] = system: SNB-75 CNS
[17] = system: OVCAR-3 ovarian
[18] = system: SK-MEL-28 melanoma
[19] = system: SW-620 colon
[20] = system: NCI-H460 lung
[21] = system: U251 CNS
[22] = system: UACC-62 melanoma
[23] = system: M14 melanoma
[24] = system: MOLT-4 leukemia
[25] = system: HCC-2998 colon
[26] = system: NCI-H226 lung
[27] = system: SNB-19 CNS
[28] = system: SK-MEL-2 melanoma
[29] = system: COLO 205 colon
[30] = system: NCI-H522 lung
[31] = system: BT-549 breast
[32] = system: TK-10 renal
[33] = system: IGROV1 ovarian
[34] = system: SK-OV-3 ovarian
[35] = system: ACHN renal
[36] = system: MCF7 breast
[37] = system: HCT-15 colon
[38] = system: OVCAR-4 ovarian
[39] = system: CAKI-1 renal
[40] = system: OVCAR-5 ovarian
[41] = system: MDA-MB-231 breast
[42] = system: UO-31 renal
[43] = system: PC-3 prostate
[44] = system: DU-145 prostate
[45] = system: MDA-MB-435
[46] = system: 786-0 renal
[47] = system: NCI/ADR-RES ovarian
[48] = system: LOX IMVI melanoma
[49] = system: KM12 colon
[50] = system: HCT-116 colon
[51] = system: A549 NSCLC

O=C1C=CC(=O)c2cc3cc(CO)ccc3cc21
GI50 [1]: 21.3 µM | TGI [1]: 55.4 µM | GI50 [2]: 10.9 µM | TGI [2]: 22.9 µM | GI50 [3]: 12 µM | TGI [3]: 27.2 µM | GI50 [4]: 20 µM | TGI [4]: 37.8 µM | GI50 [5]: 5.76 µM | TGI [5]: 15.8 µM | GI50 [6]: 1.06 µM | TGI [6]: 3.04 µM | GI50 [7]: 16.7 µM | TGI [7]: 34.7 µM | GI50 [8]: 15.8 µM | TGI [8]: 29.2 µM | GI50 [9]: 2.76 µM | TGI [9]: 6.51 µM | GI50 [10]: 17.3 µM | TGI [10]: 31.1 µM | GI50 [11]: 14.6 µM | TGI [11]: 29.9 µM | GI50 [12]: 10.9 µM | TGI [12]: > 100 µM | GI50 [13]: 11.5 µM | TGI [13]: 26.1 µM | GI50 [14]: 14.5 µM | TGI [14]: 28.1 µM | GI50 [15]: 2.94 µM | TGI [15]: 11.2 µM | GI50 [16]: 19.9 µM | TGI [16]: 48.6 µM | GI50 [17]: 1.71 µM | TGI [17]: 4.2 µM | GI50 [18]: 29.5 µM | TGI [18]: > 100 µM | GI50 [19]: 1.51 µM | TGI [19]: 2.91 µM | GI50 [20]: 19.1 µM | TGI [20]: 39.8 µM | GI50 [21]: 15.4 µM | TGI [21]: 28.7 µM | GI50 [22]: 17.9 µM | TGI [22]: 31.8 µM | GI50 [23]: 14.4 µM | TGI [23]: 27.5 µM | GI50 [24]: 0.621 µM | TGI [24]: > 100 µM | GI50 [25]: 4.42 µM | TGI [25]: 14.1 µM | GI50 [26]: 16.7 µM | TGI [26]: 31.5 µM | GI50 [27]: 20 µM | TGI [27]: 66.8 µM | GI50 [28]: 16.8 µM | TGI [28]: 32.8 µM | GI50 [29]: 11.1 µM | TGI [29]: 49.5 µM | GI50 [30]: 9.48 µM | TGI [30]: 26.4 µM | GI50 [31]: 12.9 µM | TGI [31]: 25.7 µM | GI50 [32]: 15.5 µM | TGI [32]: 30 µM | GI50 [33]: 8.79 µM | TGI [33]: 26 µM | GI50 [34]: 31.9 µM | TGI [34]: > 100 µM | GI50 [35]: 3.22 µM | TGI [35]: 10.8 µM | GI50 [36]: 14.5 µM | TGI [36]: 33.3 µM | GI50 [37]: 15.1 µM | TGI [37]: 28.4 µM | GI50 [38]: 5.55 µM | TGI [38]: 24.7 µM | GI50 [39]: 3.48 µM | TGI [39]: 10.3 µM | GI50 [40]: 20.5 µM | TGI [40]: 55.6 µM | GI50 [41]: 11.5 µM | TGI [41]: 24.9 µM | GI50 [42]: 2.35 µM | TGI [42]: 4.58 µM | GI50 [43]: 16.2 µM | TGI [43]: 34.1 µM | GI50 [44]: 1.1 µM | TGI [44]: 2.54 µM | GI50 [45]: 10.4 µM | TGI [45]: 23.6 µM | GI50 [46]: 1.74 µM | TGI [46]: 3.31 µM | GI50 [47]: 19.5 µM | TGI [47]: 36.2 µM | GI50 [48]: 1.94 µM | TGI [48]: 4.1 µM | GI50 [49]: 19.3 µM | TGI [49]: 51.3 µM | GI50 [50]: 1.82 µM | TGI [50]: 3.22 µM | GI50 [51]: 19.3 µM | TGI [51]: 45.1 µM
